Columns and labels:
Format in all cases: in vivo
[1] = system: harmful plants such as Stellaria media, Lolium multiflorum, Amaranthus retroflexus, Sinapis alba, Avena sativa and Setaria viridis; experiment: Pre-emergence effect on weeds (greenhouse pot test, visual scoring); settings: applied pre-emergence at an application rate of 1 kg or less of active substance per hectare; scored visually after 3 to 4 weeks vs untreated controls
Source text: 1 Pre-emergence Effect on Weeds
Seeds or rhizome pieces of monocotyledonous and dicotyledonous weeds plants are placed in sandy loam soil in plastic pots and covered with soil. The compounds according to the invention which are formulated in the form of wettable powders or emulsion concentrates are then applied to the surface of the soil cover in the form of an aqueous suspension or emulsion at an application rate of 600 to 800 l of water/ha (converted), in various dosages.

[2] = system: harmful plants which are typical for rice cultivation, such as Cyperus monti, Echinochloa crus-galli and Sagittaria pygmaea; experiment: Effect on harmful plants in rice (paddy rice conditions, visual scoring); settings: applied into the flooding water, various dosages, scored visually approximately three weeks after application
Method: 3. Effect on Harmful Plants in Rice
Transplanted and seeded rice and typical broad-leaved and monocotyledonous rice weeds are grown in the greenhouse to the three-leaf stage (Echinochloa crus- galli 1.5 leaf) under paddy rice conditions (depth of the water: 2-3 cm) in sealed plastic pots. They are then treated with the compounds according to the invention. To this end, the formulated active substances are suspended, dissolved or emulsified in water and applied in various dosages by pouring into the water with which the test plants are flooded. After this treatment, the test plants are placed in the greenhouse under ideal growth conditions and kept thus over the entire experimental period.
Approximately three weeks after application, the test is evalued by means of visually scoring the damage to the plants by comparison with untreated controls.

[3] = system: harmful plants such as Sinapis alba, Echinochloa crus- galli, Lolium multiflorum, Stellaria media, Cyperus iria, Amaranthus retroflexus, Setaria viridis and …; experiment: Post-emergence effect on weeds (greenhouse pot test, visual scoring); settings: applied post-emergence (three-leaf stage) at an application rate of 1 kg and less of active substance per hectare; scored visually after about 3 to 4 weeks vs untreated controls
Method: 2. Post-emergence Effect on Weeds
Seeds or rhizome pieces of monocotyledonous and dicotyledonous weeds are placed in sandy loam soil in plastic pots, covered with soil and grown in the greenhouse under good growth conditions. Three weeks after sowing, the test plants are treated in the three-leaf stage. The compounds according to the invention which are formulated as wettable powders or as emulsion concentrates are sprayed in various dosages on the green parts of the plants at an application rate of 600 to 800 l of water/ha (converted). After the test plants have remained in the greenhouse for about 3 to 4 weeks under ideal growth conditions, the effect of the preparations is scored visually by comparison with untreated controls. The agents according to the invention also have a good herbicidal post-emergence action against a broad range of economically important grass weeds and dicotyledonous weeds.

## CC(C)c1nc(N)nc(NC(CCc2ccccc2)C2CCC2)n1 (stereo not drawn) [Example 4-1]
[1]
  herbicidal action against harmful plants, pre-emergence: very good herbicidal action
[2]
  herbicidal action against harmful plants typical for rice cultivation: good herbicidal action
[3]
  herbicidal action against harmful plants, post-emergence: very good herbicidal action

## CC(C)(F)c1nc(N)nc(NC(CCc2ccccc2)C2CCC2)n1 (stereo not drawn) [Example 4-2, 2-Amino-4-(1-fluoro-1-methylethyl)-6-(3-phenyl-1-cyclobutyl-1-propylamino)-1,3,5-triazine]
[1]
  herbicidal action against harmful plants, pre-emergence: very good herbicidal action
[2]
  herbicidal action against harmful plants typical for rice cultivation: good herbicidal action
[3]
  herbicidal action against harmful plants, post-emergence: very good herbicidal action

## Cc1cccc(CCC(Nc2nc(N)nc(C(C)C)n2)C2CCC2)c1 (stereo not drawn) [Example 4-14]
[1]
  herbicidal action against harmful plants, pre-emergence: very good herbicidal action
[2]
  herbicidal action against harmful plants typical for rice cultivation: good herbicidal action
[3]
  herbicidal action against harmful plants, post-emergence: very good herbicidal action

## Cc1cccc(CCC(Nc2nc(N)nc(C(C)(C)F)n2)C2CCC2)c1 (stereo not drawn) [Example 4-15]
[1]
  herbicidal action against harmful plants, pre-emergence: very good herbicidal action
[2]
  herbicidal action against harmful plants typical for rice cultivation: good herbicidal action
[3]
  herbicidal action against harmful plants, post-emergence: very good herbicidal action

## COc1cccc(CCC(Nc2nc(N)nc(C(C)C)n2)C2CCC2)c1 (stereo not drawn) [Example 4-23]
[1]
  herbicidal action against harmful plants, pre-emergence: very good herbicidal action
[2]
  herbicidal action against harmful plants typical for rice cultivation: good herbicidal action
[3]
  herbicidal action against harmful plants, post-emergence: very good herbicidal action

## COc1cccc(CCC(Nc2nc(N)nc(C(C)(C)F)n2)C2CCC2)c1 (stereo not drawn) [Example 4-24]
[1]
  herbicidal action against harmful plants, pre-emergence: very good herbicidal action
[2]
  herbicidal action against harmful plants typical for rice cultivation: good herbicidal action
[3]
  herbicidal action against harmful plants, post-emergence: very good herbicidal action

## CC(C)(C#N)c1nc(N)nc(NC(CCc2ccccc2)C2CC2)n1 (stereo not drawn) [Example 9-4]
[1]
  herbicidal action against harmful plants, pre-emergence: very good herbicidal action
[2]
  herbicidal action against harmful plants typical for rice cultivation: good herbicidal action
[3]
  herbicidal action against harmful plants, post-emergence: very good herbicidal action

## CC(C)(F)c1nc(N)nc(NC(CCc2cccc(F)c2)C2CC2)n1 (stereo not drawn) [Example 9-5]
[1]
  herbicidal action against harmful plants, pre-emergence: very good herbicidal action
[2]
  herbicidal action against harmful plants typical for rice cultivation: good herbicidal action
[3]
  herbicidal action against harmful plants, post-emergence: very good herbicidal action

## CC(C)c1nc(N)nc(NC(CCc2cccc(Cl)c2)C2CC2)n1 (stereo not drawn) [Example 9-7]
[1]
  herbicidal action against harmful plants, pre-emergence: very good herbicidal action
[2]
  herbicidal action against harmful plants typical for rice cultivation: good herbicidal action
[3]
  herbicidal action against harmful plants, post-emergence: very good herbicidal action

## CC(C)c1nc(N)nc(NC(CCc2ccccc2)C2CC2)n1 (stereo not drawn) [Example 9-9]
[1]
  herbicidal action against harmful plants, pre-emergence: very good herbicidal action
[2]
  herbicidal action against harmful plants typical for rice cultivation: good herbicidal action
[3]
  herbicidal action against harmful plants, post-emergence: very good herbicidal action

## CC(C)(F)c1nc(N)nc(NC(CCc2ccccc2)C2CC2)n1 (stereo not drawn) [Example 9-10]
[1]
  herbicidal action against harmful plants, pre-emergence: very good herbicidal action
[2]
  herbicidal action against harmful plants typical for rice cultivation: good herbicidal action
[3]
  herbicidal action against harmful plants, post-emergence: very good herbicidal action

## CC(C)(F)c1nc(N)nc(NC(CCCCc2ccccc2)C2CCC2)n1 (stereo not drawn) [Example 31-1]
[1]
  herbicidal action against harmful plants, pre-emergence: very good herbicidal action
[3]
  herbicidal action against harmful plants, post-emergence: very good herbicidal action

## Nc1nc(NC(CCCCc2ccccc2)C2CCC2)nc(C(F)(F)F)n1 (stereo not drawn) [Example 31-2]
[1]
  herbicidal action against harmful plants, pre-emergence: very good herbicidal action
[3]
  herbicidal action against harmful plants, post-emergence: very good herbicidal action

## CC(C)c1nc(N)nc(NC(CCCCc2ccccc2)C2CCC2)n1 (stereo not drawn) [Example 31-3]
[1]
  herbicidal action against harmful plants, pre-emergence: very good herbicidal action
[3]
  herbicidal action against harmful plants, post-emergence: very good herbicidal action

## CC(C)c1nc(N)nc(NC(CCc2ccccc2)CC2CC2)n1 (stereo not drawn) [Example 32-1]
[1]
  herbicidal action against harmful plants, pre-emergence: very good herbicidal action
[3]
  herbicidal action against harmful plants, post-emergence: very good herbicidal action

## CC(C)(F)c1nc(N)nc(NC(CCc2ccccc2)CC2CC2)n1 (stereo not drawn) [Example 32-2]
[1]
  herbicidal action against harmful plants, pre-emergence: very good herbicidal action
[3]
  herbicidal action against harmful plants, post-emergence: very good herbicidal action

## CC(C)c1nc(N)nc(NC(CCc2cccc(Cl)c2)CC2CC2)n1 (stereo not drawn) [Example 32-5]
[1]
  herbicidal action against harmful plants, pre-emergence: very good herbicidal action
[3]
  herbicidal action against harmful plants, post-emergence: very good herbicidal action

## CC(C)(F)c1nc(N)nc(NC(CCc2cccc(Cl)c2)CC2CC2)n1 (stereo not drawn) [Example 32-6]
[1]
  herbicidal action against harmful plants, pre-emergence: very good herbicidal action
[3]
  herbicidal action against harmful plants, post-emergence: very good herbicidal action

## Cc1cccc(CCC(CC2CC2)Nc2nc(N)nc(C(C)C)n2)c1 (stereo not drawn) [Example 32-9]
[1]
  herbicidal action against harmful plants, pre-emergence: very good herbicidal action
[3]
  herbicidal action against harmful plants, post-emergence: very good herbicidal action

## Cc1cccc(CCC(CC2CC2)Nc2nc(N)nc(C(C)(C)F)n2)c1 (stereo not drawn) [Example 32-10]
[1]
  herbicidal action against harmful plants, pre-emergence: very good herbicidal action
[3]
  herbicidal action against harmful plants, post-emergence: very good herbicidal action

## COc1cccc(CCC(CC2CC2)Nc2nc(N)nc(C(C)C)n2)c1 (stereo not drawn) [Example 32-11]
[1]
  herbicidal action against harmful plants, pre-emergence: very good herbicidal action
[3]
  herbicidal action against harmful plants, post-emergence: very good herbicidal action

## COc1cccc(CCC(CC2CC2)Nc2nc(N)nc(C(C)(C)F)n2)c1 (stereo not drawn) [Example 32-12]
[1]
  herbicidal action against harmful plants, pre-emergence: very good herbicidal action
[3]
  herbicidal action against harmful plants, post-emergence: very good herbicidal action

## CC(C)(F)c1nc(N)nc(NC(CCc2ccccc2)CC2CC2(F)F)n1 (stereo not drawn) [Example 33-2]
[1]
  herbicidal action against harmful plants, pre-emergence: very good herbicidal action
[3]
  herbicidal action against harmful plants, post-emergence: very good herbicidal action

## CCc1nc(N)nc(NC(CCc2ccccc2)CC2CC2(F)F)n1 (stereo not drawn) [Example 33-4]
[1]
  herbicidal action against harmful plants, pre-emergence: very good herbicidal action
[3]
  herbicidal action against harmful plants, post-emergence: very good herbicidal action

## CC(C)(F)c1nc(N)nc(NC(C=Cc2ccccc2)C2CC2)n1 (stereo not drawn) [Example 44-1]
[1]
  herbicidal action against harmful plants, pre-emergence: very good herbicidal action
[3]
  herbicidal action against harmful plants, post-emergence: very good herbicidal action

## CC(C)c1nc(N)nc(NC(C=Cc2ccccc2)C2CC2)n1 (stereo not drawn) [Example 44-2]
[1]
  herbicidal action against harmful plants, pre-emergence: very good herbicidal action
[3]
  herbicidal action against harmful plants, post-emergence: very good herbicidal action

— US20030162661A1, “2,4-Diamino-1,3,5-triazines, their preparation, and their use as herbicides and plant growth regulators” (priority 1998, published 2003)
